From paper PMC5291411, “Cytotoxic conjugates of betulinic acid and substituted triazoles prepared by Huisgen Cycloaddition from 30-azidoderivatives” (PLoS ONE, 2017)

Columns and labels:
[1] = tested on: K562-TAX; assay: Cytotoxic MTS assay, K562-TAX; format: cell-based; settings: Homo sapiens, 72 h, paclitaxel resistant subline of K562
From the text: (§1) Cytotoxic activity of all synthesized compounds was investigated in vitro against eight human cancer cell lines and two non-tumor fibroblasts using the standard MTS test (Table 1). The cancer cell lines were derived from T-lymphoblastic leukemia CCRF-CEM, leukemia K562 and their multiresistant counterparts expressing P-glycoprotein, MRP1 and LRP proteins (CEM-DNR, K562-TAX), solid tumors including lung (A549) and colon (HCT116, HCT116p53-/-) carcinomas, osteosarcoma cell line (U2OS), and for comparison, tests were performed on two human non-cancer fibroblast cell lines (BJ, MRC-5).
(§2) Biological assays were performed in concordance with our previous publications [[29], [58]; [60]; [61]]. All cells (if not indicated otherwise) were purchased from the American Tissue Culture Collection (ATCC). The CCRF-CEM line is derived from T lymphoblastic leukemia, evincing high chemosenzitivity, K562 represent cells from an acute myeloid leukemia patient sample with bcr-abl translocation, U2OS line is derived from osteosarcoma, HCT116 is colorectal tumor cell line and its p53 gene knock-down counterpart (HCT116p53-/-, Horizon Discovery Ltd, UK) is a model of human cancers with p53 mutation frequently associated with poor prognosis, A549 line is lung adenocarcinoma. The daunorubicin resistant subline of CCRF-CEM cells (CEM-DNR bulk) and paclitaxel resistant subline K562-TAX were selected in our laboratory by the cultivation of maternal cell lines in increasing concentrations of daunorubicine or paclitaxel, respectively. The CEM-DNR bulk cells overexpress MRP-1 and P-glycoprotein protein, while K562-TAX cells overexpress P-glycoprotein only. Both proteins belong to the family of ABC transporters and are involved in the primary and/or acquired multidrug resistance phenomenon. MRC-5 and BJ cell lines were used as a non-tumor control and represent human fibroblasts. The cells were maintained in nunc/corning 80 cm^2 plastic tissue culture flasks and cultured in cell culture medium according to ATCC or Horizon recommendations (DMEM/RPMI 1640 with 5 g/L glucose, 2 mM glutamine, 100 U/mL penicillin, […] streptomycin, 10% fetal calf serum, and NaHCO3).
(§3) MTS assay was performed at Institute of Molecular and Translational Medicine by robotic platform (HighResBiosolutions). Cell suspensions were prepared and diluted according to the particular cell type and the expected target cell density (25000–35000 cells/mL based on cell growth characteristics). Cells were added by automatic pipetor (30 μL) into 384 well microtiter plates. All tested compounds were dissolved in 100% DMSO and four-fold dilutions of the intended test concentration were added in 0.15 μL aliquots at time zero to the microtiter plate wells by the echoacustic non-contact liquid handler Echo550 (Labcyte). The experiments were performed in technical duplicates and three biological replicates at least. The cells were incubated with the tested compounds for 72 h at 37°C, in a 5% CO2 atmosphere at 100% humidity. At the end of the incubation period, the cells were assayed by using the MTS test. Aliquots (5 μL) of the MTS stock solution were pipetted into each well and incubated for additional 1–4 h. After this incubation period, the optical density (OD) was measured at 490 nm with an Envision reader (Perkin Elmer). Tumor cell survival (TCS) was calculated by using the following equation: TCS = (ODdrug-exposed well/mean ODcontrol wells) × 100%. The IC50 value, the drug concentration that is lethal to 50% of the tumor cells, was calculated from the appropriate dose-response curves in Dotmatics software.

[2] = tested on: BJ; assay: Cytotoxic MTS assay, BJ fibroblasts; format: cell-based; settings: Homo sapiens, 72 h, non-tumor fibroblasts
From the text: as §1, §2, §3

[3] = tested on: MRC-5; assay: Cytotoxic MTS assay, MRC-5 fibroblasts; format: cell-based; settings: Homo sapiens, MRC5, 72 h, non-tumor fibroblasts
From the text: as §1, §2, §3

[4] = tested on: HCT116p53-/-; assay: Cytotoxic MTS assay, HCT116p53-/-; format: cell-based; settings: Homo sapiens, 72 h, p53 knock-down colorectal tumor
From the text: as §1, §2, §3

[5] = tested on: HCT116; assay: Cytotoxic MTS assay, HCT116; format: cell-based; settings: Homo sapiens, HCT-116, 72 h, colorectal tumor
From the text: as §1, §2, §3

[6] = tested on: U2OS; assay: Cytotoxic MTS assay, U2OS; format: cell-based; settings: Homo sapiens, 72 h, osteosarcoma
From the text: as §1, §2, §3

[7] = tested on: CEM-DNR; assay: Cytotoxic MTS assay, CEM-DNR; format: cell-based; settings: Homo sapiens, 72 h, daunorubicin resistant subline of CCRF-CEM
From the text: as §1, §2, §3

[8] = tested on: A549; assay: Cytotoxic MTS assay, A549; format: cell-based; settings: Homo sapiens, 72 h, lung adenocarcinoma
From the text: as §1, §2, §3

[9] = tested on: CCRF-CEM; assay: Cytotoxic MTS assay, CCRF-CEM; format: cell-based; settings: Homo sapiens, 72 h, T-lymphoblastic leukemia
From the text: as §1, §2, §3

[10] = tested on: K562; assay: Cytotoxic MTS assay, K562; format: cell-based; settings: Homo sapiens, 72 h, leukemia
From the text: as §1, §2, §3

[11] = tested on: CCRF-CEM cells; assay: Cell cycle and apoptosis analysis (propidium iodide flow cytometry); format: cell-based, human
Procedure: (§4) Together with the treated cells, control sample containing vehicle was harvested at the same time point after 24 h. After another 24 hours, cells were then washed with cold PBS and fixed in 70% ethanol added dropwise and stored overnight at -20°C. Afterwards, cells were washed in hypotonic citrate buffer, treated with RNAse (50 μg/mL) and stained with propidium iodide. Flow cytometer using a 488 nm single beam laser (Becton Dickinson) was used for measurement. Cell cycle was analyzed in the program ModFitLT (Verity), and apoptosis was measured in logarithmic model expressing percentage of the particles with propidium content lower than cells in G0/G1 phase (<G1) of the cell cycle. Half of the sample was used for pH3^Ser10 antibody (Sigma) labeling and subsequent flow cytometry analysis of mitotic cells.

[12] = tested on: CCRF-CEM cells; assay: pH3Ser10 antibody labeling, flow cytometry of mitotic cells; format: cell-based, human
Procedure: as §4

[13] = tested on: CCRF-CEM cells; assay: BrU incorporation analysis (RNA synthesis); format: cell-based, human; design: RNA synthesis: unit not given here
Procedure: as §4
Cells were cultured and treated as above. Before harvesting, pulse-labeling with 1 mM 5-bromouridine (BrU) for 30 min followed. The cells were then fixed in 1% buffered paraformaldehyde with 0.05% of NP-40 in room temperature for 15 min, and then stored in 4°C overnight. Before measurement, they werewashed in PBS with 1% glycin, washed in PBS again, and stained by primary anti-BrDU antibody crossreacting to BrU (Exbio) for 30 min at room temperature in the dark. After another washing step in PBS cells were stained by secondary antimouse-FITC antibody (Sigma). Following the staining, cells were washed with PBS and fixed with 1% PBS buffered paraformaldehyde with 0.05% of NP-40 for 1 hour. Cells were washed by PBS, incubated with propidium iodide (0.1 mg/mL) and RNAse A (0.5 mg/mL) for 1 h at room temperature in the dark, and finally analyzed by flow cytometry using a 488 nm single beam laser (FACS Calibur, Becton Dickinson).

[14] = tested on: CCRF-CEM cells; assay: BrDU incorporation analysis (DNA synthesis); format: cell-based, human; design: DNA synthesis: unit not given here
Procedure: as §4
For this analysis, the same procedure of cultivation as previously was used. Before harvesting, 10 μM 5-bromo-2-deoxyuridine (BrDU), was added to the cells for puls-labeling for 30 min. Cells were fixed with ice-cold 70% ethanol and stored overnight. Before the analysis, cellswere washed with PBS, and resuspended in 2 M HCl for 30 min at room temperature to denature their DNA. Following neutralization with 0.1 M Na2B4O7 (Borax), cells were washed with PBS containing 0.5% Tween-20 and 1% BSA. Staining with primary anti-BrDU antibody (Exbio) for 30 min at room temperature in the dark followed. Cells were than washed with PBS and stained with secondary antimouse-FITC antibody (Sigma). Cells were then washed with PBS again and incubated with propidium iodide (0.1 mg/mL) and RNAse A (0.5 mg/mL) for 1 h at room temperature in the dark and afterwards analyzed by flow cytometry using a 488 nm single beam laser (FACSCalibur, Becton Dickinson).

Row | Structure (SMILES) | IC50 [1] [µM] | IC50 [2] [µM] | IC50 [3] [µM] | IC50 [4] [µM] | IC50 [5] [µM] | IC50 [6] [µM] | IC50 [7] [µM] | IC50 [8] [µM] | IC50 [9] [µM] | IC50 [10] [µM] | G0/G1 (%) ([11]; 1 × IC50) | G2/M (%) ([11]; 1 × IC50) | S (%) ([11]; 1 × IC50) | Sub G1 (%) ([11]; 1 × IC50) | G0/G1 (%) ([11]; 5 × IC50) | G2/M (%) ([11]; 5 × IC50) | S (%) ([11]; 5 × IC50) | Sub G1 (%) ([11]; 5 × IC50) | pH3Ser10 (%) ([12]; 1 × IC50) | pH3Ser10 (%) ([12]; 5 × IC50) | other results
1 | C=C(CBr)[C@@H]1CC[C@]2(C(=O)O)CC[C@]3(C)C(CCC4[C@@]5(C)CC[C@H](O[Si](c6ccccc6)(c6ccccc6)c6ccccc6)C(C)(C)C5CC[C@]43C)C12 (stereo partly drawn) [Compound 5, 3β-O-Triphenylsilyl-30-bromobetulinic acid] | 12.2 | > 50 | > 50 | 31.1 | 35.6 | 27.9 | 13.2 | > 50 | > 50 | > 50 |  |  |  |  |  |  |  |  |  |  | melting point: 208 to 210 °C
2 | C=C(CBr)[C@@H]1CC[C@]2(C(=O)O)CC[C@]3(C)C(CCC4[C@@]5(C)CC[C@H](OC(C)=O)C(C)(C)C5CC[C@]43C)C12 (stereo partly drawn) [Compound 4, 3β-O-Acetyl-30-bromobetulinic acid] | 15.8 | 31.7 | 24.2 | 14.1 | 15.9 | 21.2 | 15.3 | 13.2 | 5.7 | 21.7 | 47.3 | 16.8 | 35.9 | 9.4 | 33.7 | 23.2 | 43.0 | 39.7 | 1.34 | 2.35 | effect on RNA synthesis (in words) [13]: inhibiting; RNA synthesis ([13]; 1 × IC50, BrU incorporation): 56.3; RNA synthesis ([13]; 5 × IC50, BrU incorporation): 24.8; effect on DNA synthesis (in words) [14]: inhibiting; DNA synthesis ([14]; 1 × IC50, BrDU incorporation): 38.6; DNA synthesis ([14]; 5 × IC50, BrDU incorporation): 5.80
3 | C=C(Cn1cc(-c2ccccn2)nn1)[C@@H]1CC[C@]2(C(=O)O)CC[C@]3(C)C(CCC4[C@@]5(C)CC[C@H](OC(C)=O)C(C)(C)C5CC[C@]43C)C12 (stereo partly drawn) [Compound 9c] | 13.8 | 29.5 | 27.6 | 13.7 | 30.3 | 16 | 14.4 | 13.2 | 9 | 22.1 | 48.9 | 20.3 | 30.9 | 7.2 | 40.5 | 21.0 | 38.5 | 65.6 | 1.47 | 0.89 | effect on RNA synthesis (in words) [13]: inhibiting; RNA synthesis ([13]; 1 × IC50, BrU incorporation): 25.4; RNA synthesis ([13]; 5 × IC50, BrU incorporation): 0.40; effect on DNA synthesis (in words) [14]: inhibiting; DNA synthesis ([14]; 1 × IC50, BrDU incorporation): 20.3; DNA synthesis ([14]; 5 × IC50, BrDU incorporation): 2.90
